Measured values from US20080096832A1, “Method for Improving the Pharmacokinetics of an NNRTI” (Boehringer Ingelheim International GmbH, priority 2002, published 2008).
Where two headings read alike, the source gives them in different places.

Tests used:
CYP3A4 = CYP3A4 (Homo sapiens, UniProt P08684); assay: Metabolism of the compound of the formula I by the cytochromes P450; type: in vitro ADME; details: result in words
[1] = Pharmacokinetic drug-drug interaction of the compound of the formula I and ritonavir in healthy volunteers (single dose, alone and with RTV); type: in vivo, human; set-up: CL/F: unit not given here; details: for AUC(0-t) / Cmax / Tmax / half-life / AUC: human, plasma
Protocol: A single-dose, single treatment group was studied to assess the pharmacokinetic drug-drug interaction potential between the protease inhibitors the compound of the formula I and ritonavir. The compound of the formula I was administered as a solution containing 5 or 12.5 mg of the compound of the formula I, with excipients, and ritonavir was administered as the 100-mg marketed product (Norvir) 12 hours preceding and co-administration with the compound of the formula I . Baseline pharmacokinetic data for the compound of the formula I was obtained as single doses up through 100 mg. The co-administered drugs were compared with baseline data. The study was conducted in healthy volunteers Pharmacokinetic analyses were based on the results obtained in these subjects. Pharmacokinetic parameters such as AUC, Cmax, tmax, oral clearance, and terminal half-life were determined using standard noncompartmental techniques.

[2] = 12.5 mg oral single dose alone, mean
[3] = 25 mg oral single dose alone, mean
[4] = 50 mg oral single dose alone, mean
[5] = 75 mg oral single dose alone, mean
[6] = 100 mg oral single dose alone, mean
[7] = oral, 5 mg solution + RTV 100 mg, mean
[8] = oral, 5 mg, 5 mg alone (no RTV), mean
[9] = oral, 12.5 mg solution + RTV 100 mg, mean
[10] = oral, 12.5 mg, 12.5 mg alone (no RTV), mean (Table 1)
[11] = po, 12.5 mg, 12.5 mg oral single dose alone, mean (Table 2)
[12] = po, 25 mg, 25 mg oral single dose alone, mean
[13] = po, 50 mg, 50 mg oral single dose alone, mean
[14] = po, 75 mg, 75 mg oral single dose alone, mean
[15] = po, 100 mg, 100 mg oral single dose alone, mean
[16] = with ritonavir 100 mg versus alone

Chain of CYP3A4 (P08684 whole entry): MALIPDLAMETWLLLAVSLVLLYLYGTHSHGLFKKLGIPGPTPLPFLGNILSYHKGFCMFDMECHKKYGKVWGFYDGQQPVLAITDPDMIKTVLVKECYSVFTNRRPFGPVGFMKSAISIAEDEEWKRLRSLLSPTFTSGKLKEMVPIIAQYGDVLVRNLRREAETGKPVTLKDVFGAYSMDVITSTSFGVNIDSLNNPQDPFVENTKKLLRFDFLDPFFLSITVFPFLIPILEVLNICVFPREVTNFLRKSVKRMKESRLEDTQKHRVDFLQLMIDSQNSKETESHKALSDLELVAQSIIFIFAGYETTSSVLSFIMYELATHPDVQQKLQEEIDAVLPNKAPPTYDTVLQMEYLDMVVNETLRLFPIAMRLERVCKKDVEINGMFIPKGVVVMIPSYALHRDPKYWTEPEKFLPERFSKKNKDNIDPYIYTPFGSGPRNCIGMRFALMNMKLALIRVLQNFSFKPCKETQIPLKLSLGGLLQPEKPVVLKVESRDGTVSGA

## CCN1c2ncc(CCOc3cc[n+]([O-])c4ccccc34)cc2C(=O)N(C)c2cccnc21 [the compound of the formula I, 5,11-Dihydro-11-ethyl-5-methyl-8-{2-{(1-oxido-4-quinolinyl)oxy}ethyl}-6H-dipyrido[3,2-b:2′,3′-e] [1,4]diazepin-6-one]
CYP3A4
  metabolism by the cytochromes P450, especially the CYP3A4 isoform: surprisingly rapid metabolism
[1]; [2]
  % Renally eliminated as unchanged drug: 0.21%
  CL/F: 243495.99
[1]; [3]
  % Renally eliminated as unchanged drug: 0.41%
  CL/F: 200752.61
  AUC: 139 ng·h/mL
[1]; [4]
  % Renally eliminated as unchanged drug: 0.48%
  CL/F: 124815.56
  AUC: 437 ng·h/mL
[1]; [5]
  % Renally eliminated as unchanged drug: 0.60%
  CL/F: 263277.68
  AUC: 817 ng·h/mL
[1]; [6]
  % Renally eliminated as unchanged drug: 0.81%
  CL/F: 75634.54
  AUC: 1390 ng·h/mL
[1]; oral, 5 mg solution + RTV 100 mg (12 h before and co-administered), mean
  AUC(0-t): 578 ng·h/mL
[1]; [7]
  Cmax: 22.8 ng/mL
  Tmax: 4 h
[1]; oral, 5 mg solution + RTV 100 mg, mean, read-out: half-life (converted)
  half-life: 15.3 h
[1]; [8]
  AUC(0-t): 13.6 ng·h/mL
  Cmax: 3.64 ng/mL
  Tmax: 1.5 h
[1]; oral, 12.5 mg solution + RTV 100 mg (12 h before and co-administered), mean
  AUC(0-t): 1700 ng·h/mL
[1]; [9]
  Cmax: 74.1 ng/mL
  Tmax: 3.59 h
[1]; oral, 12.5 mg solution + RTV 100 mg, mean, read-out: half-life (converted)
  half-life: 15.9 h
[1]; [10]
  AUC(0-t): 57.1 ng·h/mL
  Cmax: 14.8 ng/mL
  Tmax: 1 h
[1]; oral, 12.5 mg, 12.5 mg alone (no RTV), mean (Table 1), read-out: half-life (converted)
  half-life: 4.1 h
[1]; oral, co-administration with ritonavir 100 mg, read-out: half-life upon co-administration with ritonavir (converted)
  half-life: 15 h
[1]; oral, without ritonavir, single dose range of 1-100 mg, read-out: half-life without ritonavir (converted)
  half-life: ~2 h
[1]; [11]
  Cmax: 14.8 ng/mL
  Tmax: 1 h
[1]; po, 12.5 mg, 12.5 mg oral single dose alone, mean (Table 2), read-out: Half-life (converted)
  half-life: 4.1 h
[1]; [12]
  Cmax: 41.6 ng/mL
  Tmax: 0.83 h
[1]; po, 25 mg, 25 mg oral single dose alone, mean, read-out: Half-life (converted)
  half-life: 3.44 h
[1]; [13]
  Cmax: 164 ng/mL
  Tmax: 0.67 h
[1]; po, 50 mg, 50 mg oral single dose alone, mean, read-out: Half-life (converted)
  half-life: 2.5 h
[1]; [14]
  Cmax: 348 ng/mL
  Tmax: 0.67 h
[1]; po, 75 mg, 75 mg oral single dose alone, mean, read-out: Half-life (converted)
  half-life: 2.21 h
[1]; [15]
  Cmax: 937 ng/mL
  Tmax: 0.55 h
[1]; po, 100 mg, 100 mg oral single dose alone, mean, read-out: Half-life (converted)
  half-life: 1.86 h
[1]; 12.5 mg oral single dose alone, mean (Table 2)
  AUC: 63.1 ng·h/mL
[1]; [16]
  increase of AUC (plasma concentrations as measured by area under the curve) in the presence of ritonavir: ~40 fold
  increase of mean Cmax in the presence of ritonavir: 5-6 fold
